Drawing on PubChem BioAssay AID248 (DTP/NCI, 2004), this text covers T/C for 22 compounds.

The test system of this assay is L1210 leukemia ip in BDF1 mice, survival T/C. Description: NCI In Vivo Anticancer Drug Screen. Data for tumor model L1210 Leukemia (intraperitoneal) in B6D2F1 (BDF1) mice. Particulars: endpoint: mean survival time, higher = longer survival. In outline: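 Mice bearing the transplanted tumor received compound or vehicle. Survival of the treated group was divided by that of the vehicle-treated control group to give the ratio.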

Setting [1] is: dose: 100.0 mg/kg/injection, schedule: Q01DX009 (ip), vehicle: water.
Setting [2] is: dose: 100.0 mg/kg/injection, schedule: Q04DX003 (ip), vehicle: water.
[3] abbreviates: dose: 100.0 mg/kg/injection, schedule: Q04DX003 (ip), vehicle: saline with Tween-80.
Where [4] appears, read: dose: 100.0 mg/kg/injection, schedule: Q01DX001 (ip), vehicle: saline.
Where [5] appears, read: dose: 400.0 mg/kg/injection, schedule: Q01DX001 (ip), vehicle: saline.
Where [6] appears, read: dose: 100.0 mg/kg/injection, schedule: Q01DX001 (ip), vehicle: other.
Setting [7] is: dose: 200.0 mg/kg/injection, schedule: Q01DX001 (ip), vehicle: other.
Where [8] appears, read: dose: 400.0 mg/kg/injection, schedule: Q01DX001 (ip), vehicle: other.
The mark [9] stands for this setting: dose: 100.0 mg/kg/injection, schedule: Q01DX009 (ip), vehicle: saline.
Where [10] appears, read: dose: 100.0 mg/kg/injection, schedule: Q04DX003 (ip), vehicle: saline.
The mark [11] stands for this setting: dose: 200.0 mg/kg/injection, schedule: Q01DX009 (ip), vehicle: saline.
[12] abbreviates: dose: 200.0 mg/kg/injection, schedule: Q04DX003 (ip), vehicle: saline.
[13] abbreviates: dose: 400.0 mg/kg/injection, schedule: Q01DX009 (ip), vehicle: saline.
Where [14] appears, read: dose: 400.0 mg/kg/injection, schedule: Q04DX003 (ip), vehicle: saline.
Where [15] appears, read: dose: 6.25 mg/kg/injection, schedule: Q01DX009 (ip), vehicle: saline.
Setting [16] is: dose: 25.0 mg/kg/injection, schedule: Q01DX009 (ip), vehicle: saline.
[17] abbreviates: dose: 50.0 mg/kg/injection, schedule: Q01DX009 (ip), vehicle: saline.
Setting [18] is: dose: 200.0 mg/kg/injection, schedule: Q01DX001 (ip), vehicle: saline.

Several values for one entry are separate records, joined by “and”; a condition that tells them apart may be missing. Identical values can stand only once. Toxic doses and inconclusive results are not listed.

Consider `O=C(Nc1ccc(CC2=NCCCN2)cc1)c1ccc(C(=O)Nc2ccc(CC3=NCCCN3)cc2)cc1`, for which the T/C was 95 % of control (dose: 0.5 mg/kg/injection, schedule: Q01DX Z (ip), vehicle: water) and 103 % of control (dose: 1.0 mg/kg/injection, schedule: Q01DX Z (ip), vehicle: water).
In the case of `NC1(c2ccccc2)CC1`, the T/C was 90 % of control (dose: 25.0 mg/kg/injection, schedule: Q04DX002 (ip), vehicle: Klucel (hydroxypropylcellulose) (HPC)); 93 % of control (dose: 50.0 mg/kg/injection, schedule: Q04DX002 (ip), vehicle: Klucel (hydroxypropylcellulose) (HPC)); 95 % of control and 98 % of control (dose: 100.0 mg/kg/injection, schedule: Q04DX002 (ip), vehicle: Klucel (hydroxypropylcellulose) (HPC)).
Consider `COc1cc(/C=N/NC(=O)c2ccccc2NC(=O)c2ccccc2)ccc1O`, for which the T/C is, setting by setting: (dose: 100.0 mg/kg/injection, schedule: Q01DX009 (ip), vehicle: Klucel (hydroxypropylcellulose) (HPC)) 97 % of control; (dose: 200.0 mg/kg/injection, schedule: Q01DX009 (ip), vehicle: Klucel (hydroxypropylcellulose) (HPC)) 95 % of control; (dose: 400.0 mg/kg/injection, schedule: Q01DX009 (ip), vehicle: Klucel (hydroxypropylcellulose) (HPC)) 100 % of control.
As to `O=C(O)c1c(F)c(F)c(Br)c(F)c1F`, the T/C reads like this: (dose: 25.6 mg/kg/injection, schedule: Q04DX002 (ip), vehicle: saline with Tween-80) 168 % of control; (dose: 64.0 mg/kg/injection, schedule: Q04DX002 (ip), vehicle: saline with Tween-80) 91 % of control; (dose: 160.0 mg/kg/injection, schedule: Q04DX002 (ip), vehicle: saline with Tween-80) 94 % of control; (dose: 400.0 mg/kg/injection, schedule: Q04DX002 (ip), vehicle: saline with Tween-80) 94 % of control.
As for `Cc1ccc(Cl)cc1S`, the T/C was 96 % of control (dose: 16.0 mg/kg/injection, schedule: Q01DX015 (ip), vehicle: saline); 94 % of control (dose: 32.0 mg/kg/injection, schedule: Q01DX015 (ip), vehicle: saline); 100 % of control (dose: 64.0 mg/kg/injection, schedule: Q01DX015 (ip), vehicle: saline); 100 % of control under setting [1]; 94 % of control under setting [2]; 88 % of control (dose: 128.0 mg/kg/injection, schedule: Q01DX015 (ip), vehicle: saline).
In the case of `CC(C)c1ccc(C(O)C2CC2)cc1` (stereo not given), the T/C under setting [3] is 94 % of control.
In the case of `Oc1ccccc1Sc1ccccc1O`, the T/C reads like this: under setting [4], 92 % of control; under setting [5], 97 % of control.
In the case of `O=C1C(Cc2ccccc2)C(=O)N(Cc2ccccc2)C(=O)N1Cc1ccccc1`, the T/C is 88 % of control (dose: 100.0 mg/kg/injection, schedule: Q01DX001 (ip), vehicle: carboxymethylcellulose (CMC)); 90 % of control (dose: 200.0 mg/kg/injection, schedule: Q01DX001 (ip), vehicle: carboxymethylcellulose (CMC)); 88 % of control (dose: 400.0 mg/kg/injection, schedule: Q01DX001 (ip), vehicle: carboxymethylcellulose (CMC)).
For the compound `Oc1ccc(C=NCCN=Cc2ccc(O)cc2)cc1`, the T/C is 103 % of control under setting [6], 103 % of control under setting [7] and 103 % of control under setting [8].
With `BrC12CCC(CC1)C1CCC2CC1`, the T/C reads like this: under setting [9], 90 % of control; under setting [10], 96 % of control; under setting [11], 87 % of control; under setting [12], 97 % of control; under setting [13], 88 % of control; under setting [14], 98 % of control.
In the case of `COC1C=CC2C3Cc4ccc(O)c5c4C2(CCN3C)C1O5` (stereo not given), the T/C is, setting by setting: (dose: 75.0 mg/kg/injection, schedule: Q01DX001 (ip), vehicle: saline) 104 % of control; (dose: 150.0 mg/kg/injection, schedule: Q01DX001 (ip), vehicle: saline) 103 % of control.
Turning to `O=C(N/N=C\C=C\c1ccccc1)c1ccc(Cl)cc1`, the T/C (dose: 50.0 mg/kg/injection, schedule: Q01DX009 (ip), vehicle: saline with Tween-80) was 93 % of control; the T/C (dose: 100.0 mg/kg/injection, schedule: Q01DX009 (ip), vehicle: saline with Tween-80) is 89 % of control; the T/C (dose: 200.0 mg/kg/injection, schedule: Q01DX009 (ip), vehicle: saline with Tween-80) is 86 % of control.
As to `O=C(O)c1ccc2ccc3cccnc3c2n1`, the T/C is 96 % of control under setting [3] and 113 % of control (dose: 200.0 mg/kg/injection, schedule: Q04DX003 (ip), vehicle: saline with Tween-80).
Turning to `O=C(Cn1ccc(=O)[nH]c1=O)N1CCOCC1`, the T/C is, setting by setting: under setting [1], 91 % of control; under setting [2], 100 % of control; (dose: 200.0 mg/kg/injection, schedule: Q01DX009 (ip), vehicle: water) 90 % of control; (dose: 200.0 mg/kg/injection, schedule: Q04DX003 (ip), vehicle: water) 92 % of control; (dose: 400.0 mg/kg/injection, schedule: Q01DX009 (ip), vehicle: water) 104 % of control; (dose: 400.0 mg/kg/injection, schedule: Q04DX003 (ip), vehicle: water) 94 % of control.
Consider `CO/C([O-])=N/S(=O)(=O)n1cc[n+](C)c1`, for which the T/C (dose: 75.0 mg/kg/injection, schedule: Q01DX009 (ip), vehicle: Klucel (hydroxypropylcellulose) (HPC)) is 98 % of control; the T/C (dose: 150.0 mg/kg/injection, schedule: Q01DX009 (ip), vehicle: Klucel (hydroxypropylcellulose) (HPC)) is 86 % of control; the T/C (dose: 300.0 mg/kg/injection, schedule: Q01DX009 (ip), vehicle: Klucel (hydroxypropylcellulose) (HPC)) was 95 % of control.
For the compound `C/C(=N/N(C)C)c1ccc(F)cc1`, the T/C is 94 % of control under setting [15]; 98 % of control (dose: 12.5 mg/kg/injection, schedule: Q01DX009 (ip), vehicle: saline); 106 % of control under setting [16]; 101 % of control under setting [17]; 94 % of control under setting [9].
Consider `COC(=O)C(N)CSC` (stereo not given), for which the T/C was 101 % of control under setting [9]; 101 % of control under setting [10]; 98 % of control under setting [11]; 97 % of control under setting [12]; 95 % of control under setting [13]; 101 % of control under setting [14].
`NC(=S)N/N=C\c1ncnc2ccccc12`: the T/C by setting is: (dose: 2.1 mg/kg/injection, schedule: Q03HX032 (ip), vehicle: saline with Tween-80) 101 % of control; (dose: 3.2 mg/kg/injection, schedule: Q03HX032 (ip), vehicle: saline with Tween-80) 107 % of control; (dose: 4.8 mg/kg/injection, schedule: Q03HX032 (ip), vehicle: saline with Tween-80) 118 % of control; under setting [15], 115 % of control; (dose: 7.2 mg/kg/injection, schedule: Q03HX032 (ip), vehicle: saline with Tween-80) 91 % of control; (dose: 50.0 mg/kg/injection, schedule: Q01DX001 (ip), vehicle: saline) 100 % of control. Also, the T/C is, setting by setting: under setting [17], 117 % of control; under setting [4], 112 % of control; under setting [18], 118 % of control; under setting [5], 112 % of control.
On to `IC1CCCCC1[n+]1ccccc1` (stereo not given), for which the T/C is, setting by setting: (dose: 100.0 mg/kg/injection, schedule: Q04DX003 (sc), vehicle: olive oil, sesame oil, peanut oil) 105 % of control; (dose: 200.0 mg/kg/injection, schedule: Q04DX003 (sc), vehicle: olive oil, sesame oil, peanut oil) 103 % of control; (dose: 400.0 mg/kg/injection, schedule: Q04DX003 (sc), vehicle: olive oil, sesame oil, peanut oil) 101 % of control.
Consider `Cc1ccc(OCC(=O)Nc2ccc(Cl)cc2)c(C)c1`, for which the T/C by setting is: under setting [6], 95 % of control; under setting [7], 98 % of control; under setting [8], 98 % of control.
As for `Nc1nc2ncn(C3OC(CO)C(O)C3O)c2c(=O)[nH]1` (stereo not given), the T/C reads like this: under setting [4], 105 % of control; under setting [18], 104 % of control; under setting [5], 104 % of control.
`CC(C)NC(=O)CCl`: the T/C under setting [16] is 96 % of control; the T/C (dose: 25.0 mg/kg/injection, schedule: Q04DX003 (ip), vehicle: saline) is 90 % of control; the T/C under setting [17] was 91 % of control; the T/C (dose: 50.0 mg/kg/injection, schedule: Q04DX003 (ip), vehicle: saline) is 92 % of control; the T/C under setting [9] is 98 % of control; the T/C under setting [10] was 102 % of control and 92 % of control.
